# Experimental data: US8501770B2 (ArQule, Inc., priority 2009, dated 2013)
# Assays:
# [1] = target: Full-length inactive AKT1 (Homo sapiens, UniProt P31749); assay: Inactive Akt Alpha Screen Assay; type: biochemical; conditions: values not marked with "*"; read-out: Akt1 IC50, (AlphaScreen)
# In short: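 AlphaScreen read-out (excitation 640 nm, emission 570 nm) after 90 min incubation at room temperature in the dark. Signal comes from crosstide phosphorylation by AKT1, which was activated by added PDK1, MAPKAPK2, ATP and lipid vesicles, captured via phospho-AKT substrate antibody and streptavidin beads.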
# [2] = test system: A2780; assay: MTS Assay, cell proliferation, A2780; type: cell-based; conditions: Homo sapiens, read-out: Average of [CELL], IC50, MTS (72 hours; 10 Percent; FBS) A2780
# Protocol: (§1) Cell proliferation analysis. Cell survival was determined by the MTS assay. Briefly, cells were plated in a 96-well plate at 2,000-10,000 cells per well, cultured for 24 hours in complete growth medium, and then treated with various drugs and drug combinations for 72 hours. MTS was added and incubated for 4 hour, followed by assessment of cell viability using the microplate reader at 570 nm. Data were normalized to untreated controls and analyzed with Microsoft Excel.
# [3] = test system: AN3CA; assay: MTS Assay, cell proliferation, AN3CA; type: cell-based; conditions: Homo sapiens, AN3-CA, read-out: Average of [CELL], IC50, MTS (72 hours; 10 Percent; FBS) AN3CA
# Protocol: as §1
# [4] = test system: BT474; assay: MTS Assay, cell proliferation, BT474; type: cell-based; conditions: Homo sapiens, BT-474, read-out: Average of [CELL], IC50, MTS (72 hours; 10 Percent; FBS) BT474
# Protocol: as §1
# [5] = test system: LnCap; assay: MTS Assay, cell proliferation, LnCap; type: cell-based; conditions: Homo sapiens, read-out: Average of [CELL], IC50, MTS (72 hours; 10 Percent; FBS) LnCap
# Protocol: as §1
# [6] = test system: Zr75-1; assay: MTS Assay, cell proliferation, Zr75-1; type: cell-based; conditions: Homo sapiens, ZR-75-1, read-out: Average of [CELL], IC50, MTS (72 hours; 10 Percent; FBS) Zr75-1
# Protocol: as §1
# [7] = test system: IGROV; assay: MTS Assay, cell proliferation, IGROV; type: cell-based; conditions: read-out: Average of [CELL], IC50, MTS (72 hours; 10 Percent; FBS) IGROV
# Protocol: as §1
# Chain of Full-length inactive AKT1 (P31749 whole entry): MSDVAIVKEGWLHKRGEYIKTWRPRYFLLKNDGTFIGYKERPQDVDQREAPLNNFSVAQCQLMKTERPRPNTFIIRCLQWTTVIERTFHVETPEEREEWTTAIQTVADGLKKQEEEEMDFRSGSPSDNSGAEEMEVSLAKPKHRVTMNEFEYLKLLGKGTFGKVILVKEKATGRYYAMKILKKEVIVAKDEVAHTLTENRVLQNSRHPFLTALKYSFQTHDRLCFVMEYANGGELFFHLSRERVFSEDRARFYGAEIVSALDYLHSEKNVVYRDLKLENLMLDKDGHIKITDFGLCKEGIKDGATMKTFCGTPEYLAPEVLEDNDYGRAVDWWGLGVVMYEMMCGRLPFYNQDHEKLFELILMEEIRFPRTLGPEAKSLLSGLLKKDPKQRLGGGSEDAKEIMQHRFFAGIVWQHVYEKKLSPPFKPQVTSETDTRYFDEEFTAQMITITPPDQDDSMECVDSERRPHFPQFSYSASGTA
IC50 [1] [µM],Compound,IC50 [2] [µM],IC50 [3] [µM],IC50 [4] [µM],IC50 [5] [µM],IC50 [6] [µM],IC50 [7] [µM]
0.014,"CC(=O)Nc1cccc(-c2ccc3nc(-c4cccnc4N)n(-c4ccc(CNS(=O)(=O)c5ccccc5)cc4)c3n2)c1 [Example 324, N-(3-(2-(2-aminopyridin-3-yl)-3-(4-(phenylsulfonamidomethyl)phenyl)-3H-imidazo[4,5-b]pyridin-5-yl)phenyl)acetamide]",6.3,5,2.5,4.2,3.6,
,"Nc1ncccc1-c1nc2ccc(-c3ccccc3)nc2n1-c1ccc(C2(N)CCC2)cc1 [Example 351, 3-(3-(4-(1-aminocyclobutyl)phenyl)-5-phenyl-3H-imidazo[4,5-b]pyridin-2-yl)pyridin-2-amine]",0.72,0.62,1.3,2.1,4.2,1.7
